Read-outs that look alike come from different tables or passages of the source.
Legend:
Assay in all cases: Specificity determination, inhibition of [3H]digoxin binding in dextran charcoal RIA
[1] = system: monoclonal anti-digoxin antibody Dig 25-54; design: species or system mouse (A/J); conditions: for amount of inhibitor required to give 50% inhibition relative to the amount of digoxin which gave 50% inhibition: inhibition of antibody binding to [3H]digoxin
Description: (§1) The specificity of each antidigoxin antibody for related cardiac glycosides was assessed by the inhibition of binding of antibody in the dextran charcoal radioimmunoassay Smith (1972), supra. To a constant amount of H^3 -digoxin (1.5 ng) in 1 ml of buffer is added different amounts ([…]) of various cardiac glycosides: digoxin, digitoxin, digitoxigenin, digoxigenin, acetyl-strophanthidin, ouabain, deslanoside, and endogenous steroids such as chloresterol, cortisol, androsterone, 17-[beta]-estradiol, progesterone, and testosterone. After 5 minutes, a constant amount of anti-digoxin antibody was added and the assay was continued as described above. Comparison among different antidigoxin antibodies with respect to their fine specificity was made by determining the amount of cardiac glycoside required to achieve 50% inhibition relative to that required for cold digoxin.
(§2) Specificity of monoclonal antibody binding site for related cardiac glycosides was examined by means of hapten inhibition experiments in which the binding of monoclonal antibody to H^3 -digoxin was inhibited by cold digoxin and related cardiac glycosides.

[2] = system: monoclonal anti-digoxin antibody Dig 26-10; design: species or system mouse (A/J); conditions: for amount of inhibitor required to give 50% inhibition relative to the amount of digoxin which gave 50% inhibition: inhibition of antibody binding to [3H]digoxin
Description: as §1, §2

[3] = system: monoclonal anti-digoxin antibody Dig 26-20; design: species or system mouse (A/J); conditions: for amount of inhibitor required to give 50% inhibition relative to the amount of digoxin which gave 50% inhibition: inhibition of antibody binding to [3H]digoxin
Description: as §1, §2

[4] = system: monoclonal anti-digoxin antibody Dig 26-30; design: species or system mouse (A/J); conditions: for amount of inhibitor required to give 50% inhibition relative to the amount of digoxin which gave 50% inhibition: inhibition of antibody binding to [3H]digoxin
Description: as §1, §2

[5] = system: monoclonal anti-digoxin antibody Dig 26-40; design: species or system mouse (A/J); conditions: for amount of inhibitor required to give 50% inhibition relative to the amount of digoxin which gave 50% inhibition: inhibition of antibody binding to [3H]digoxin
Description: as §1, §2

[6] = system: monoclonal anti-digoxin antibody Dig 35-20; design: species or system mouse (A/J); conditions: for amount of inhibitor required to give 50% inhibition relative to the amount of digoxin which gave 50% inhibition: inhibition of antibody binding to [3H]digoxin
Description: as §1, §2

[7] = system: Sheep Anti-Dig Serum (heterogeneous anti-digoxin antiserum); conditions: inhibition of antibody binding to [3H]digoxin
Description: Antisera specific for digoxin was prepared in sheep as previously described by Curd et al, Proc. Nat. Acad. Sci. 65: 2401 (1971). High affinity antidigoxin sheep antisera was used in the clinical RIA for digoxin (described below).
as §1, §2

[8] = highest concentration tested 10^-4 M

| Compound | inhibition of binding of [3H]digoxin by endogenous steroids [1, 8] | inhibition of binding of [3H]digoxin by endogenous steroids [2, 8] | inhibition of binding of [3H]digoxin by endogenous steroids [3, 8] | inhibition of binding of [3H]digoxin by endogenous steroids [4, 8] | inhibition of binding of [3H]digoxin by endogenous steroids [5, 8] | inhibition of binding of [3H]digoxin by endogenous steroids [6, 8] | amount of inhibitor required to give 50% inhibition relative to the amount of digoxin which gave 50% inhibition [1] | amount of inhibitor required to give 50% inhibition relative to the amount of digoxin which gave 50% inhibition [2] | amount of inhibitor required to give 50% inhibition relative to the amount of digoxin which gave 50% inhibition [3] | amount of inhibitor required to give 50% inhibition relative to the amount of digoxin which gave 50% inhibition [4] | amount of inhibitor required to give 50% inhibition relative to the amount of digoxin which gave 50% inhibition [5] | amount of inhibitor required to give 50% inhibition relative to the amount of digoxin which gave 50% inhibition [6] | further results |
| --- | --- | --- | --- | --- | --- | --- | --- | --- | --- | --- | --- | --- | --- |
| 4-androstedione |  |  |  |  |  |  |  |  |  |  |  |  | inhibition of binding of [3H]digoxin by endogenous steroids [1]: No significant inhibition; inhibition of binding of [3H]digoxin by endogenous steroids [2]: No significant inhibition; inhibition of binding of [3H]digoxin by endogenous steroids [3]: No significant inhibition; inhibition of binding of [3H]digoxin by endogenous steroids [4]: No significant inhibition; inhibition of binding of [3H]digoxin by endogenous steroids [5]: No significant inhibition; inhibition of binding of [3H]digoxin by endogenous steroids [6]: No significant inhibition |
| C[C@]12CC[C@@H]3c4ccc(O)cc4CC[C@H]3[C@@H]1CC[C@@H]2O [17-[beta]-estradiol] | No significant inhibition | No significant inhibition | No significant inhibition | No significant inhibition | No significant inhibition | No significant inhibition |  |  |  |  |  |  |  |
| CC(=O)O[C@H]1CC[C@]2(C=O)[C@H]3CC[C@]4(C)[C@@H](C5=CC(=O)OC5)CC[C@]4(O)[C@@H]3CC[C@]2(O)C1 [Acetylstrophanthidin] |  |  |  |  |  |  | > 100 | 1.50 | 0.70 | 0.85 | 2.30 | 110 |  |
| C[C@H]1O[C@@H](O[C@H]2CC[C@@]3(C)[C@H](CC[C@@H]4[C@@H]3C[C@@H](O)[C@]3(C)[C@@H](C5=CC(=O)OC5)CC[C@]43O)C2)C[C@H](O)[C@@H]1O[C@H]1C[C@H](O)[C@H](O[C@H]2C[C@H](O)[C@H](O[C@@H]3O[C@H](CO)[C@@H](O)[C@H](O)[C@H]3O)[C@@H](C)O2)[C@@H](C)O1 [Deslanoside] |  |  |  |  |  |  | 4.3 | 2.6 | 1.5 | 1.6 | 2.0 | 3.7 |  |
| C[C@]12CC[C@H](O)C[C@H]1CC[C@@H]1[C@@H]2CC[C@]2(C)[C@@H](C3=CC(=O)OC3)CC[C@]12O [Digitoxigenin] |  |  |  |  |  |  | 54.0 | 3.7 | 2.2 | 3.6 | 4.0 | 2.7 | amount of inhibitor required to give 50% inhibition relative to the amount of digoxin which gave 50% inhibition [7]: 860.0 |
| C[C@H]1O[C@@H](O[C@H]2[C@@H](O)C[C@H](O[C@H]3[C@@H](O)C[C@H](O[C@H]4CC[C@@]5(C)[C@H](CC[C@@H]6[C@@H]5CC[C@]5(C)[C@@H](C7=CC(=O)OC7)CC[C@]65O)C4)O[C@@H]3C)O[C@@H]2C)C[C@H](O)[C@@H]1O [Digitoxin] |  |  |  |  |  |  | 1.8 | 1.3 | 1.0 | 2.6 | 1.4 | 4.6 | amount of inhibitor required to give 50% inhibition relative to the amount of digoxin which gave 50% inhibition [7]: 152.0; amount of inhibitor required to give 50% inhibition relative to the amount of digoxin which gave 50% inhibition ([7]; listed as digitoxin): 150 |
| C[C@@H]1O[C@@H](O[C@H]2C[C@@H](O)[C@]3(CO)[C@H]4[C@H](O)C[C@]5(C)[C@@H](C6=CC(=O)OC6)CC[C@]5(O)[C@@H]4CC[C@]3(O)C2)[C@H](O)[C@H](O)[C@H]1O [Ouabain] |  |  |  |  |  |  | > 100 | 66 | 53 | 84 | 78 | 333 | amount of inhibitor required to give 50% inhibition relative to the amount of digoxin which gave 50% inhibition [7]: > 10^5 |
| CC(C)CCC[C@@H](C)[C@H]1CC[C@H]2[C@@H]3CC=C4C[C@@H](O)CC[C@]4(C)[C@H]3CC[C@]12C [cholesterol] | No significant inhibition | No significant inhibition | No significant inhibition | No significant inhibition | No significant inhibition | No significant inhibition |  |  |  |  |  |  |  |
| C[C@]12CCC(=O)C=C1CC[C@@H]1[C@@H]2[C@@H](O)C[C@@]2(C)[C@H]1CC[C@]2(O)C(=O)CO [cortisol] | No significant inhibition | No significant inhibition | No significant inhibition | No significant inhibition | No significant inhibition | No significant inhibition |  |  |  |  |  |  |  |
| CC(=O)[C@H]1CC[C@H]2[C@@H]3CCC4=CC(=O)CC[C@]4(C)[C@H]3CC[C@]12C [progesterone] | No significant inhibition | No significant inhibition | No significant inhibition | No significant inhibition | No significant inhibition | No significant inhibition |  |  |  |  |  |  |  |
| C[C@]12CC[C@H]3[C@@H](CCC4=CC(=O)CC[C@@]43C)[C@@H]1CC[C@@H]2O [testosterone] |  |  |  |  |  |  |  |  |  |  |  |  | inhibition of binding of [3H]digoxin by endogenous steroids [1]: No significant inhibition; inhibition of binding of [3H]digoxin by endogenous steroids [2]: No significant inhibition; inhibition of binding of [3H]digoxin by endogenous steroids [3]: No significant inhibition; inhibition of binding of [3H]digoxin by endogenous steroids [4]: No significant inhibition; inhibition of binding of [3H]digoxin by endogenous steroids [5]: No significant inhibition; inhibition of binding of [3H]digoxin by endogenous steroids [6]: No significant inhibition |

— patent publication US4803167A, “Monoclonal antidigoxtin antibodies” (The General Hospital Corporation, priority 1982, dated 1989)
